The values that follow come from US7662361B2, “Methods and compositions for modulating drug activity through telomere damage” (priority 1999, dated 2010).

For data set [1], the system named is SKOV3 cells. The data set can be described thus: TALA telomere length after paclitaxel treatment. The data set is classed as cell-based, human. The note with it: 200 nM paclitaxel.
For data set [2], the system named is PC3 cells. The data set is described as follows: Cell detachment from the growth surface. Format: cell-based, human. The note with it: 20 nM paclitaxel, end of 96-hr experiment.
Description: (§1) Upon drug treatment, the supernatant along with two subsequent Versene rinses, which contained the detached cells, were collected. […] These samples were centrifuged at 1500 rpm for 10 min and the resulting cell pellets were resuspended in 2 ml of culture media. The cell number in the detached and attached fractions were counted using a Coulter counter (Coulter Electronic, Inc., Hialeah, Fla.).
Data set [3] concerns FaDu cells. The data set is described as follows: Cell detachment from the growth surface. The data set is classed as cell-based, human. The note with it: 200 nM paclitaxel, end of 48-hr treatment.
Description: as §1
Treatment with the above agents was initiated after cells were allowed to attach to the growth surface in culture flasks. On the day of experiments, the culture medium was removed and replaced with drug-containing medium. […] For d4T, two concentrations, 20 μM and 40 μM were used.
Agent effect was measured in three ways, i.e., enumeration of the number of cells that remained attached in culture flask, enumeration of the number of cells that detached from the growth surface, and by measuring changes in apoptosis. […] The drug-induced detachment of cells from the growth surface was determined by counting the attached and detached cells.
Data set [4] relates to telomerase activity of FaDu cells. The data set can be described thus: TRAP telomerase activity in drug-treated cells. The data set is classed as cell-based, human. Particulars: 200 nM paclitaxel.
Description: For the preparation of cell and tissue extracts, cells and tissue were harvested, washed, and stored at −70° C. Cells were then lysed in a SDS-based lysis buffer (10 mM Tris.HCl, pH 7.5, 1 mM MgCl2, 1 mM EGTA, 0.1 mM phenylmethylsulfonyl fluoride, 5 mM β-mercaptoethanol, 0.1% CHAPS, and 10% glycerol), on ice for 10 min. To this mixture, three volumes of CHAPS-based buffer (10 mM Tris-HCl, pH 7.5, 1 mM MgCl2, 1 mM EGTA, 0.1 mM phenylmethylsulfonyl fluoride, 5 mM β-mercaptoethanol, 0.5% CHAPS, and 10% glycerol) were added and kept on ice for 5 min. […] For the extraction of tissues, tissues were homogenized in SDS-based lysis buffer with a Kontes pellet pestle (Fisher, Pittsburgh, Pa.), mixed with three volumes of CHAPS-based buffer, and centrifuged were centrifuged at 8,000 g for 15 min at 4° C. The supernatant was kept at −20° C. The protein concentration of the supernatant was determined using Bicinchoninic Acid Kit (Sigma, St Louis, Mo.). The protein concentration was adjusted to 0.5 μg/μl with CHAPS-based buffer. Samples with equal amounts of protein (1-2 μg) were analyzed by TRAP. […] The TRAP reaction mixture contained 2-4 μl of protein extract, 20 mM Tris.HCl (pH 8.3), 1.5 mM MgCl2, 63 mM KCl, 0.005% Tween-20, 1 mM EGTA, 50 μM dNTPs, 0.1 μg of TS primer, 0.1 mg/ml bovine serum albumin. The mixture was incubated at 30° C. for 30 min, then at 90° C. for 2 min.
This was accomplished by using phenol/chloroform extraction of the cell lysate, as follows. One μg of tRNA and 0.1 ng internal control template were added to the reaction solution after primer extension. The total volume of the mixture was brought to 100 μl with water, mixed with an equal volume of buffer saturated phenol (Life Technology) and then centrifuged at 18,000 g for 3 min, at room temperature. The top aqueous layer (90 μl) was carefully transferred to a new tube and mixed with an equal volume of chloroform:isoamyl alcohol (24:1) solution and centrifuged at 18,000 g for 3 min, at room temperature. The top aqueous layer (80 μl) was again transferred to a new tube and the nucleotides were precipitated with 0.2 volume of 3 M sodium acetate (pH 5.3) and 3 volume of 100% ethanol at −70° C. for at least 2 hr. The mixture was centrifuged at 18,000 g for 15 min at 4° C. […]
(§2) The template for the internal standard was amplified by PCR and purified by spin columns (QIAquick PCR purification kit, Qiagen, Valencia, Calif.). The concentration was determined by a spectrophotometer.
PCR was performed on the GeneAmp PCR system 2400 (Perkin Elmer) and initiated by 1 cycle at 94° C. for 3 min, 50° C. for 4 min, and 68° C. for 2 min, then 25 rounds at 94° C. for 30 sec, 50° C. for 30 sec, and 68° C. for 90 sec, followed by 68° C. for 10 min. […] The gel was then dried and the amplification products were detected. […]
Data set [5] has as its system telomerase activity in histocultures of FaDu xenograft tumors. The data set is described as follows: TRAP telomerase activity in tumor histocultures. Format: cell-based, human. The note with it: 1 μM paclitaxel.
Description: Histocultures of solid tumors. Histocultures are cultures of tumor fragments where the three dimensional structure and the heterogeneous tissue composition are maintained. […] Tumor specimens were washed three times with culture medium for three times and dissected into about 1 mm^3 fragments under sterile conditions. The culture medium for the FaDu histocultures was MEM supplemented with 9% heat-inactivated FBS, 2 mM glutamine, 90 μg/ml gentamicin and 90 μg/ml cefotaxime sodium.
For the preparation of cell and tissue extracts, cells and tissue were harvested, washed, and stored at −70° C. […] The protein concentration of the supernatant was determined using Bicinchoninic Acid Kit (Sigma, St Louis, Mo.). […] Samples with equal amounts of protein (1-2 μg) were analyzed by TRAP. […]
as §2
PCR was performed on the GeneAmp PCR system 2400 (Perkin Elmer) and initiated by 1 cycle at 94° C. for 3 min, 50° C. for 4 min, and 68° C. for 2 min, then 25 rounds at 94° C. for 30 sec, 50° C. for 30 sec, and 68° C. for 90 sec, followed by 68° C. for 10 min. […] The gel was then dried and the amplification products were detected.
Data set [6] has as its system FaDu cells. The data set can be described thus: SRB paclitaxel cytotoxicity in hTR antisense transfected cells. Format: cell-based. Particulars: Homo sapiens, +antisense + IPTG cells (IPTG 44 days), paclitaxel 96 hours, read-out: IC50 of paclitaxel, clone #1. As for the experimental part: In vitro drug activity evaluation. Drug effect was measured in three ways, i.e., by enumerating the number of cells that remained attached in culture flask, by enumerating the number of cells that detached from the growth surface, and changes in levels of apoptosis. The first measurement represents the overall drug effect, i.e., the combination of cytostatic and cytotoxic effects, whereas the latter two measurements reflect the cytotoxic effect. The remaining cell number after drug treatment was measured using the sulforhodamine B (SRB) assay which stains for cellular protein (Skehan P et al. (1990) J Natl Cancer Inst 82:1107-1112).
In brief, cells were seeded onto 96-well plates. To avoid changes in drug concentration caused by excessive evaporation of medium in wells located at the edge of the plate only the inner wells in 96-well plates were used. The outer wells contained only tissue culture media to serve as blanks. […] The amount of SRB was measured by absorbance at 490 nm using an EL 340 microplate biokinetics reader (Bio-Tek Instruments, Inc., Winooski, Vt.). The absorbance is proportional to the number of cells attached to the culture plate. […]
Effect of hTR antisense on the cytotoxic effect of paclitaxel. […] The cytotoxic effect of paclitaxel was quantified using the SRB method which measures the total cellular proteins. […]

Data set [7] deals with FaDu cells. The data set can be described thus: SRB assay of cell number, AZT and paclitaxel. The data set is classed as cell-based, human. The note with it: 24 hr. In general terms: The SRB assay estimates cell density from bound dye.
Description: In brief, cells were seeded onto 96-well plates. To avoid changes in drug concentration caused by excessive evaporation of medium in wells located at the edge of the plate only the inner wells in 96-well plates were used. The outer wells contained only tissue culture media to serve as blanks. At the end of drug treatment, the culture medium was removed from the wells by aspiration and the cells were then fixed by incubating with 0.2 ml 10% trichloroacetic acid at 4° C. for 1 hr, followed by five washes with distilled water. The plates were then air-dried after which SRB solution (0.05 ml of 0.4%) was added to stain cells for 10 min at room temperature. […] The amount of SRB was measured by absorbance at 490 nm using an EL 340 microplate biokinetics reader (Bio-Tek Instruments, Inc., Winooski, Vt.). The absorbance is proportional to the number of cells attached to the culture plate. […]
Drug activity evaluation. Agent effect was measured in three ways, i.e., enumeration of the number of cells that remained attached in culture flask, enumeration of the number of cells that detached from the growth surface, and by measuring changes in apoptosis. […] The remaining cell number after agent treatment was measured using the sulforhodamine B (SRB) assay. The drug-induced detachment of cells from the growth surface was determined by counting the attached and detached cells. […]
In data set [8] the test system is telomere length. The data set can be described thus: TALA telomere length, paclitaxel and AZT alone or in combination. Format: cell-based, human.
Excerpt: The effect of paclitaxel and AZT, alone or in combination, on telomere length was studied using TALA.
The subject of data set [9] is human pharynx FaDu xenografts. The data set is described as follows: Antitumor effect in mice bearing FaDu xenografts.
Description: (§3) The activity of paclitaxel, with or without AZT, was evaluated in immunodeficient mice (male Balb/c nu/nu mice, 6-8 weeks old) bearing the human pharynx FaDu xenografts. […] The saline control group received injections of 200 μl/day of physiological saline of five consecutive days. The paclitaxel group received injections of 10 mg/kg/day paclitaxel dissolved in Cremophor and ethanol (i.e., Taxol) in a volume of 200 μl for five consecutive days. The AZT group received a seven-day infusion of AZT at a rate of 200 ng/hr by a subcutaneously implanted Alzet minipump. […] Animal weights and tumor sizes were measured on days 1, 3, 6, 8, and 10 after initiation of the paclitaxel treatment.
The antitumor effect of the drug treatments was measured in three ways. The first was the reduction in tumor size. Tumor sizes were determined by first preparing a mold of the extruding tumor using Jeltrate, a rapidly setting molding material, and then preparing and weighing the countermold. Second, the apoptotic effect was measured. […] The tumor sections were evaluated morphologically for tumor cell density, and density of apoptotic cells. […] Third, the ability of drug treatment to prolong the survival time was measured. For this study, the animals were monitored for 100 days, or until moribundity, defined by a tumor length exceeding 1.0 cm, was reached.
Data set [10] can be described thus: Host toxicity (body weight, death) in xenograft-bearing mice. Particulars: single agents.
Description: as §3

Each structure is given as a SMILES string.

As usually defined, the IC50 is the concentration needed to halve the response being measured. Turning to `CC(=O)O[C@H]1C(=O)[C@@]2(C)[C@H]([C@H](OC(=O)c3ccccc3)[C@]3(O)C[C@H](OC(=O)[C@H](O)[C@@H](NC(=O)c4ccccc4)c4ccccc4)C(C)=C1C3(C)C)[C@]1(OC(C)=O)CO[C@@H]1C[C@@H]2O` [paclitaxel], the “shortening of telomeric length” value in data set [1] (24 hr, compared to untreated controls) is on record as 13%. For the same molecule, the “telomere shortening on extending treatment” value in data set [1] (36 hr) and in [8] (paclitaxel 36 hr) was “did not produce a greater telomere shortening” in each case. Moreover, the detached cell fraction is reported as 68% in data set [2] and “about 40%” in data set [3]. For the same molecule, the peak telomerase activity in [4] (3 hr) is reported as ~180 % of control value. Besides, the figures for the telomerase activity entry in [4] (24 hr), in [4] (48 hr) and in data set [5] (96 hr) were “returning to the baseline level”, 50 % of the control values and “about 50 % of the baseline level”, respectively. The “time of peak telomerase activity” value in data set [5] was 12 h. Besides, the 50% inhibitory concentration (IC50) in data set [6] turned out to be 1.3 nM. For the same molecule, in data set [7] (Homo sapiens, FaDu, paclitaxel alone, up to 10 μM, read-out: maximum effect (reduction of cell number)), the Emax was 35%. In addition, the cell number entry in data set [7] (paclitaxel alone 100 nM, fixed concentration method) is listed as “about 65 % of the control value”. Further, the “shortening of the average telomeric length” value in data set [8] (200 nM paclitaxel 24 hr, combination: 10 μM AZT 24 hr pretreatment then AZT plus paclitaxel 24 hr) is 13%. For the same molecule, the “median time to reach moribundity” value in data set [9] (Kaplan Meier analysis, monitored 100 days) was 42 days. For the same molecule, in [9] (of 12 animals), the tumor-free survivors entry is “did not show tumor-free survivors”. In addition, the toxicity-related death entry in data set [10] is recorded as “no toxicity-related death”.
